Earlier results in US20240226016A1, “STARCH BASED PRINTABLE MATERIALS” (ROQUETTE FRERES, priority 2021, published 2024).

solubility in water (class): freely soluble in water
Structure (SMILES): Cn1c(=O)c2c(ncn2CC(O)CO)n(C)c1=O (stereo not shown) [diprophylline]
